Data from PubChem BioAssay AID1918943 (Molecular Pharmacology Branch, DTP, NCI, 2023).
Where “and” joins values, the source holds several entries; their conditions need not be identical. Equal values may be shown once.

System: 855422-203-R-J1-PDC complex spheroid viability
Test: Anticancer human tumor 855422-203-R-J1-PDC patient-derived bladder carcinoma cell line growth inhibition
Settings: for viability, T/C: stronger effect = lower value
How it was run: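 Multicellular complex spheroids of tumor cells with human endothelial cells (HUVEC) and mesenchymal stem cells; the LSD1 inhibitor iadademstat was combined with standard-of-care or investigational agents. Top concentration at or near clinical Cmax, half-log dilutions; final DMSO ≤0.25%.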

[1] = curve of first compound, second compound 0.1 µM
[2] = curve of first compound, second compound 0.316 µM
[3] = curve of first compound, second compound 1 µM
[4] = curve of first compound, second compound 3.16 µM
[5] = curve of first compound, second compound 10 µM
[6] = second compound 0.1 µM, first compound 0.000316 µM
[7] = second compound 0.1 µM, first compound 0.001 µM
[8] = second compound 0.1 µM, first compound 0.00316 µM
[9] = second compound 0.1 µM, first compound 0.01 µM
[10] = second compound 0.1 µM, first compound 0.0316 µM
[11] = second compound 0.1 µM, first compound 0.1 µM
[12] = second compound 0.316 µM, first compound 0.000316 µM
[13] = second compound 0.316 µM, first compound 0.001 µM
[14] = second compound 0.316 µM, first compound 0.00316 µM
[15] = second compound 0.316 µM, first compound 0.01 µM
[16] = second compound 0.316 µM, first compound 0.0316 µM
[17] = second compound 0.316 µM, first compound 0.1 µM
[18] = second compound 1 µM, first compound 0.000316 µM
[19] = second compound 1 µM, first compound 0.001 µM
[20] = second compound 1 µM, first compound 0.00316 µM
[21] = second compound 1 µM, first compound 0.01 µM
[22] = second compound 1 µM, first compound 0.0316 µM
[23] = second compound 1 µM, first compound 0.1 µM
[24] = second compound 3.16 µM, first compound 0.000316 µM
[25] = second compound 3.16 µM, first compound 0.001 µM
[26] = second compound 3.16 µM, first compound 0.00316 µM
[27] = second compound 3.16 µM, first compound 0.01 µM
[28] = second compound 3.16 µM, first compound 0.0316 µM
[29] = second compound 3.16 µM, first compound 0.1 µM
[30] = second compound 10 µM, first compound 0.000316 µM
[31] = second compound 10 µM, first compound 0.001 µM
[32] = second compound 10 µM, first compound 0.00316 µM
[33] = second compound 10 µM, first compound 0.01 µM
[34] = second compound 10 µM, first compound 0.0316 µM
[35] = second compound 10 µM, first compound 0.1 µM
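Further: drug exposure lasted 7 days starting on day 3 after seeding.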
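Wherever viability, T/C is given: luminescence viability as percent of DMSO vehicle wells = 100%.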

| SMILES | IC50 [1] [nM] | IC50 [2] [nM] | IC50 [3] [nM] | IC50 [4] [nM] | IC50 [5] [nM] | viability, T/C [6] [%] | viability, T/C [7] [%] | viability, T/C [8] [%] | viability, T/C [9] [%] | viability, T/C [10] [%] | viability, T/C [11] [%] | viability, T/C [12] [%] | viability, T/C [13] [%] | viability, T/C [14] [%] | viability, T/C [15] [%] | viability, T/C [16] [%] | viability, T/C [17] [%] | viability, T/C [18] [%] | viability, T/C [19] [%] | viability, T/C [20] [%] | further results |
| --- | --- | --- | --- | --- | --- | --- | --- | --- | --- | --- | --- | --- | --- | --- | --- | --- | --- | --- | --- | --- | --- |
| CCc1c2c(nc3ccc(O)cc13)-c1cc3c(c(=O)n1C2)COC(=O)[C@]3(O)CC | – | – | – | – | – | – | – | – | – | – | – | – | – | – | – | – | – | – | – | – | viability, T/C (compound 0.000949 µM): 14.2% and 14.1%; viability, T/C (compound 0.003 µM): 10.3% and 11.1%; viability, T/C (compound 0.00949 µM): 6.95% and 8.29%; viability, T/C (compound 0.03 µM): 5.21% and 4.8%; viability, T/C (compound 0.0949 µM): 3.58% and 2.82%; viability, T/C (compound 0.3 µM): 1.67% and 10.8%; IC50 (curve of compound): < 0.949 nM |
| Cn1ncnc1C1c2n[nH]c(=O)c3cc(F)cc(c23)NC1c1ccc(F)cc1 (configuration not stated) + NC1CCC(NC2CC2c2ccccc2)CC1 | > 100 | > 100 | > 100 | > 100 | > 100 | 104 | 94.4 | 97.1 | 86.5 | 78 | 77.5 | 90 | 92.4 | 84.3 | 83.9 | 90.7 | 82.3 | 88 | 86.1 | 109 | viability, T/C [21]: 86.2%; viability, T/C [22]: 92.9%; viability, T/C [23]: 81.3%; viability, T/C [24]: 89.4%; viability, T/C [25]: 97%; viability, T/C [26]: 109%; viability, T/C [27]: 78.2%; viability, T/C [28]: 77.4%; viability, T/C [29]: 74.8%; viability, T/C [30]: 82.7%; viability, T/C [31]: 78.5%; viability, T/C [32]: 101%; viability, T/C [33]: 70.6%; viability, T/C [34]: 74.6%; viability, T/C [35]: 69.1% |
| CC(C)CC(NC(=O)CNC(=O)c1cc(Cl)ccc1Cl)B1OC(=O)CC(CC(=O)O)(C(=O)O)O1 (configuration not stated) + NC1CCC(NC2CC2c2ccccc2)CC1 | 1.8 | 1.7 | 1.67 | 1.63 | 1.52 | 95.9 | 89.3 | 12.2 | 1.62 | 0.03 | 0.09 | 100 | 90.4 | 3.11 | 1.91 | 0.02 | 0.09 | 91.9 | 87 | 3.87 | viability, T/C [21]: 0.69%; viability, T/C [22]: 0.02%; viability, T/C [23]: 0.1%; viability, T/C [24]: 89.8%; viability, T/C [25]: 85.3%; viability, T/C [26]: 2.25%; viability, T/C [27]: 0.69%; viability, T/C [28]: 0.04%; viability, T/C [29]: 0.1%; viability, T/C [30]: 77.6%; viability, T/C [31]: 76.9%; viability, T/C [32]: 2.8%; viability, T/C [33]: 0.29%; viability, T/C [34]: 0.12%; viability, T/C [35]: 3.15% |
| Cn1ncnc1C1c2n[nH]c(=O)c3cc(F)cc(c23)NC1c1ccc(F)cc1 (configuration not stated) + NC1CC1c1ccc(-c2cccc(O)c2)cc1 | > 100 | > 100 | > 100 | > 100 | > 100 | 91.5 | 75.1 | 74.4 | 77.3 | 80.9 | 86.2 | 89.2 | 76.7 | 76.1 | 84.2 | 87.6 | 91.9 | 95.8 | 97.3 | 96.5 | viability, T/C [21]: 102%; viability, T/C [22]: 82.7%; viability, T/C [23]: 90.5%; viability, T/C [24]: 102%; viability, T/C [25]: 106%; viability, T/C [26]: 103%; viability, T/C [27]: 109%; viability, T/C [28]: 94.1%; viability, T/C [29]: 97.2%; viability, T/C [30]: 106%; viability, T/C [31]: 110%; viability, T/C [32]: 97.6%; viability, T/C [33]: 109%; viability, T/C [34]: 100%; viability, T/C [35]: 102% |
